Measurements reported in DBAASP.
≈ marks a conversion by molar mass, not a printed value.

What was measured:
Experiment in all cases: ≥ marks a high value that may be exact or a test limit, other limits are often not marked, values filed in µg/mL are converted to µM
[1] = system: Aspergillus flavus KCTC 6905
[2] = system: Salmonella typhimurium CCARM 8009
[3] = system: Pseudomonas aeruginosa 4007
[4] = system: Listeria monocytogenes ATCC 19115
[5] = system: Escherichia coli CCARM 1238
[6] = system: Staphylococcus aureus PBEL
[7] = system: Proteus vulgaris KCTC 2433
[8] = system: Staphylococcus epidermidis ATCC 12228
[9] = system: Aspergillus fumigatus KCTC 6145
[10] = system: Aspergillus parasiticus KCTC 6598
[11] = system: Listeria monocytogenes KCTC 3710
[12] = system: Bacillus subtilis KCTC 1918
[13] = system: Candida albicans KCTC 7270
[14] = system: Staphylococcus epidermidis KCTC 3096
[15] = system: Escherichia coli CCARM 1229
[16] = system: Pseudomonas aeruginosa KCTC 1637
[17] = system: Pseudomonas aeruginosa 3547
[18] = system: Staphylococcus aureus CCARM 3114
[19] = system: Pseudomonas aeruginosa ATCC 15692
[20] = system: Salmonella typhimurium CCARM 8013
[21] = system: Salmonella typhimurium KCTC 1926
[22] = system: Staphylococcus aureus CCARM 3089
[23] = system: Bacillus subtilis KCTC 1998
[24] = system: Aspergillus awamori KCTC 6915
[25] = system: Trichosporon beigelii KCTC 7707
[26] = system: Micrococcus luteus MT166
[27] = system: Pseudomonas putida NCIM 2102
[28] = system: Staphylococcus aureus ATCC 8530
[29] = system: Escherichia coli W160-37
[30] = system: Saccharomyces cerevisiae ATCC 8530
[31] = system: Bacillus subtilis
[32] = system: Escherichia coli 218
[33] = system: Klebsiella pneumoniae
[34] = system: Pseudomonas aeruginosa
[35] = system: Escherichia coli ATCC 25922
[36] = system: Candida parapsilosis ATCC 22019
[37] = system: Shigella dysenteriae
[38] = system: Klebsiella pneumoniae ATCC 700603
[39] = system: Staphylococcus aureus 37
[40] = system: Staphylococcus aureus ATCC 25923
[41] = system: Pseudomonas aeruginosa CMCCB 1010
[42] = system: Escherichia coli 117
[43] = system: Candida albicans ATCC 90028
[44] = system: Pseudomonas aeruginosa ATCC 27853
[45] = system: Escherichia coli 37
[46] = system: Enterobacter cloacae ATCC 13047
[47] = system: Enterococcus faecalis ATCC 29212
[48] = system: Candida albicans ATCC 2002
[49] = system: Pseudomonas aeruginosa PAO1
[50] = system: Pseudomonas aeruginosa 919
[51] = system: Pseudomonas aeruginosa 253
[52] = system: Pseudomonas aeruginosa 910

An MIC [1] of 16 µM (≈ 33 µg/mL), an MIC [2] of 4 µM (≈ 8.25 µg/mL) and an MIC [3] of 1 µM (≈ 2.06 µg/mL) were found for CC[C@H](C)[C@H](NC(=O)[C@H](CCCCN)NC(=O)[C@H](CCCCN)NC(=O)[C@H](Cc1ccccc1)NC(=O)[C@H](CC(C)C)NC(=O)[C@H](CCCCN)NC(=O)[C@H](CCCCN)NC(=O)[C@H](CC(C)C)NC(=O)[C@H](CCCN=C(N)N)NC(=O)[C@H](CCCCN)NC(=O)[C@@H](N)Cc1ccccc1)C(=O)N[C@@H](Cc1c[nH]c2ccccc12)C(=O)N[C@@H](CC(N)=O)C(=O)N[C@@H](Cc1c[nH]c2ccccc12)C(=O)N[C@@H](CCCCN)C(N)=O [FKRLKKLFKKIWNWK] in this work. For the same compound, the MIC [4] was 2 µM (≈ 4.13 µg/mL), the MIC [5] was 2 µM (≈ 4.13 µg/mL) and the MIC [6] was 1 µM (≈ 2.06 µg/mL). It also gave an MIC [7] of 8 µM (≈ 16.5 µg/mL), an MIC [8] of 2.83 µM (≈ 5.83 µg/mL) and an MIC [9] of 4 µM (≈ 8.25 µg/mL). For the same compound, the MIC [10] was 8 µM (≈ 16.5 µg/mL), the MIC [11] was 2 µM (≈ 4.13 µg/mL) and the MIC [12] was 2 µM (≈ 4.13 µg/mL). The MIC [13] was 8 µM (≈ 16.5 µg/mL), the MIC [14] was 2.83 µM (≈ 5.83 µg/mL) and the MIC [15] was 2 µM (≈ 4.13 µg/mL). For the same compound, the MIC [16] was 2 µM (≈ 4.13 µg/mL), the MIC [17] was 4 µM (≈ 8.25 µg/mL) and the MIC [18] was 2 µM (≈ 4.13 µg/mL). It also gave an MIC [19] of 2 µM (≈ 4.13 µg/mL), an MIC [20] of 1 µM (≈ 2.06 µg/mL) and an MIC [21] of 2 µM (≈ 4.13 µg/mL). It also gave an MIC [22] of 2 µM (≈ 4.13 µg/mL), an MIC [23] of 2 µM (≈ 4.13 µg/mL) and an MIC [24] of 16 µM (≈ 33 µg/mL). The MIC [25] was 16 µM (≈ 33 µg/mL).

An MIC [26] of 14.9 µM (≈ 20 µg/mL), an MIC [27] of 29.8 µM (≈ 39.9 µg/mL) and an MIC [28] of 22.3 µM (≈ 29.9 µg/mL) were found for CC[C@H](C)[C@@H]1NC(=O)[C@H](CCSC)NC(=O)[C@H]([C@@H](C)O)NC(=O)[C@@H](NC(=O)[C@@H](N)Cc2ccccc2)CSSC[C@@H](C(=O)N[C@@H](Cc2ccc(O)cc2)C(N)=O)NC(=O)[C@H](CCCN=C(N)N)NC(=O)[C@@H]2CCCN2C(=O)[C@H]([C@@H](C)CC)NC(=O)[C@@H]2CCCN2C1=O [FCTMIPIPRCY] in this work. The MIC [29] was 29.8 µM (≈ 39.9 µg/mL), the MIC [30] was at least 59.5 µM and the MIC [31] was 22.3 µM (≈ 29.9 µg/mL).

An MIC [32] of 7.32 µM (≈ 10 µg/mL), an MIC [33] of 7.32 µM (≈ 10 µg/mL) and an MIC [34] of 7.32 µM (≈ 10 µg/mL) were found for CC[C@H](C)[C@H](NC(=O)[C@H](C)NC(=O)[C@H](CCCCN)NC(=O)[C@H](CC(C)C)NC(=O)[C@@H](N)CC(N)=O)C(=O)N[C@@H](C)C(=O)N[C@@H](C)C(=O)N[C@@H](CC(C)C)C(=O)N[C@@H](C)C(=O)N[C@@H](CCCCN)C(=O)N[C@@H](CCCCN)C(=O)N[C@@H](CC(C)C)C(=O)N[C@@H](CC(C)C)C(=O)O [NLKAIAALAKKLL] in this work. The MIC [35] was 14.6 µM (≈ 20 µg/mL), the MIC [36] was 29.3 µM (≈ 40 µg/mL) and the MIC [37] was 14.6 µM (≈ 20 µg/mL). The MIC [38] was 14.6 µM (≈ 20 µg/mL), the MIC [39] was 7.32 µM (≈ 10 µg/mL) and the MIC [40] was 3.66 µM (≈ 5 µg/mL). It also gave an MIC [41] of 14.6 µM (≈ 20 µg/mL), an MIC [42] of 14.6 µM (≈ 20 µg/mL) and an MIC [43] of 7.32 µM (≈ 10 µg/mL). It also gave an MIC [44] of 29.3 µM (≈ 40 µg/mL), an MIC [45] of 3.66 µM (≈ 5 µg/mL) and an MIC [46] of 7.32 µM (≈ 10 µg/mL). For the same compound, the MIC [47] was 3.66 µM (≈ 5 µg/mL) and the MIC [48] was 7.32 µM (≈ 10 µg/mL).

An MIC [49] of 16 µM (≈ 25.5 µg/mL), an MIC [50] of at least 32 µM and an MIC [51] of 16 µM (≈ 25.5 µg/mL) were found for CC[C@H](C)[C@H](NC(=O)[C@H](CCCN=C(N)N)NC(=O)[C@H](Cc1c[nH]c2ccccc12)NC(=O)[C@H](CC(C)C)NC(=O)[C@@H](N)CCCN=C(N)N)C(=O)N[C@H](C(=O)N[C@H](C(=O)N[C@H](C(=O)N[C@@H](CCCN=C(N)N)C(=O)N[C@H](C(=O)N[C@@H](CCCCN)C(=O)N[C@@H](CCCN=C(N)N)C(N)=O)C(C)C)[C@@H](C)CC)C(C)C)C(C)C [RLWRIVVIRVKR] in this work. It also gave an MIC [52] of at least 32 µM.
